{"source": "patent US20100248965A1", "about": "“HERBICIDAL COMBINATION” (Bayer CropScience AG, priority 2007, published 2010)", "type_in_all_cases": "in vivo", "key": {"Polygonum convolvulus": {"tested_on": "Polygonum convolvulus", "test": "Post-emergence action against weeds (greenhouse, visual scoring): Polygonum convolvulus", "conditions": "scored 11 days after application", "method": "(§1) Seeds or rhizome pieces of monocotyledonous and dicotyledonous weeds were placed in sandy loam soil in plastic pots, covered with soil and cultivated in a greenhouse under good growth conditions. Three weeks after sowing, the test plants were treated at the 2- to 4-leaf stage. The compounds according to the invention, formulated as wettable powders or as emulsion concentrates, were sprayed onto the green parts of the plants in various dosages at a water application rate of 100 to 800 l/ha (converted).\n(§2) Scoring was carried out 11 days after the application of the sprays. In the case of the combination with B7-16 (table 1-15), the weed was Polygonum spp. and scoring was carried out 20 days after application.\n(§3) The control of the weed was scored according to the scheme below."}, "Veronica persica": {"tested_on": "Veronica persica", "test": "Post-emergence action against weeds (greenhouse, visual scoring): Veronica persica", "conditions": "scored 10 days after application", "method": "as §1, with “(converted). After the test plants had been left to stand in the greenhouse for 10 to 28 days under optimum growth conditions, the effect of the preparations was scored visually in comparison to untreated controls.” for “(converted).”\nIn an exemplary manner, tables 2-1 to 2-4 below show the improved control of the weed Veronica persica by application of the herbicide combinations according to the invention using the combination of the compound A-2 (sodium salt of 2-iodo-N-[(4-methoxy-6-methyl-1,3,5-triazin-2-yl)carbamoyl]benzenesulfonamide) and selected herbicides from group B, i.e. the herbicides amidosulfuron (=B7-1), ethoxysulfuron (=B7-9), flucarbazone-sodium (B8-1), and sulfosulfuran (B7-28), as an example.\nScoring was carried out 10 days after the application of the sprays according to the scheme below: […]"}, "Polygonum spp.": {"tested_on": "Polygonum spp.", "test": "Post-emergence action against weeds (greenhouse, visual scoring): Polygonum spp.", "conditions": "scored 20 days after application", "method": "as §1, §2, §3"}, "[1]": {"conditions": "2.5 g of ai/ha, 0%=no control, 100%=complete control"}}, "note": "“And” between values parts separate entries of the source, which are not always exact repeats. Equal entries are not always repeated.", "data": [{"molecule": "CCOC(=O)Nc1cccc(OC(=O)Nc2ccccc2)c1", "note": "[Compound B5-5, desmedipham]", "values": [{"measurement": "Polygonum convolvulus Control in %", "setting": "Polygonum convolvulus; 50 g of ai/ha", "value": 28, "unit": "%"}]}, {"molecule": "COc1cc(OC)nc(NC(=O)NS(=O)(=O)N(C)S(C)(=O)=O)n1", "note": "[Compound B7-1, amidosulfuron]", "values": [{"measurement": "Veronica persica Control in %", "setting": "Veronica persica; 5 g of ai/ha", "value": 0, "unit": "%"}]}, {"molecule": "CCOc1ccccc1OS(=O)(=O)NC(=O)Nc1nc(OC)cc(OC)n1", "note": "[Compound B7-9, ethoxysulfuron]", "values": [{"measurement": "Veronica persica Control in %", "setting": "Veronica persica; 5 g of ai/ha", "value": 8, "unit": "%"}]}, {"molecule": "COc1cc(OC)nc(NC(=O)NS(=O)(=O)c2cc(NC=O)ccc2C(=O)N(C)C)n1", "note": "[Compound B7-13, foramsulfuron]", "values": [{"measurement": "Polygonum convolvulus Control in %", "setting": "Polygonum convolvulus; 10 g of ai/ha", "value": 15, "unit": "%"}]}, {"molecule": "COC(=O)c1ccc(I)cc1S(=O)(=O)[N-]C(=O)Nc1nc(C)nc(OC)n1.[Na+]", "note": "[Compound B7-16, iodosulfuron-methyl-sodium]", "values": [{"measurement": "Polygonum spp. Control in %", "setting": "Polygonum spp.; 2 g of ai/ha", "value": 73, "unit": "%"}]}, {"molecule": "COC(=O)c1ccc(CNS(C)(=O)=O)cc1S(=O)(=O)NC(=O)Nc1nc(OC)cc(OC)n1", "note": "[Compound B7-17, mesosulfuron-methyl]", "values": [{"measurement": "Polygonum convolvulus Control in %", "setting": "Polygonum convolvulus; 5 g of ai/ha", "value": 20, "unit": "%"}]}, {"molecule": "COC(=O)c1ccccc1S(=O)(=O)NC(=O)Nc1nc(C)nc(OC)n1", "note": "[Compound B7-18, metsulfuron-methyl]", "values": [{"measurement": "Polygonum convolvulus Control in %", "setting": "Polygonum convolvulus; [1]", "value": 70, "unit": "%"}]}, {"molecule": "CCS(=O)(=O)c1nc2ccccn2c1S(=O)(=O)NC(=O)Nc1nc(OC)cc(OC)n1", "note": "[Compound B7-28, sulfosulfuron]", "values": [{"measurement": "Polygonum convolvulus Control in %", "setting": "Polygonum convolvulus; 7.5 g of ai/ha", "value": 78, "unit": "%"}, {"measurement": "Veronica persica Control in %", "setting": "Veronica persica; 7.5 g of ai/ha", "value": 30, "unit": "%"}]}, {"molecule": "COC(=O)c1sccc1S(=O)(=O)NC(=O)Nc1nc(C)nc(OC)n1", "note": "[Compound B7-29, thifensulfuron-methyl]", "values": [{"measurement": "Polygonum convolvulus Control in %", "setting": "Polygonum convolvulus; 7.5 g of ai/ha", "value": 87, "unit": "%"}]}, {"molecule": "COC(=O)c1ccccc1S(=O)(=O)NC(=O)N(C)c1nc(C)nc(OC)n1", "note": "[Compound B7-31, tribenuron-methyl]", "values": [{"measurement": "Polygonum convolvulus Control in %", "setting": "Polygonum convolvulus; 10 g of ai/ha", "value": 80, "unit": "%"}]}, {"molecule": "COc1nc(NC(=O)NS(=O)(=O)c2ccccc2C(F)(F)F)nc(C(F)(F)F)n1", "note": "[Compound B7-34, tritosulfuron]", "values": [{"measurement": "Polygonum convolvulus Control in %", "setting": "Polygonum convolvulus; 10 g of ai/ha", "value": 58, "unit": "%"}]}, {"molecule": "CCCc1ccc2nc(Cl)c(S(=O)(=O)NC(=O)Nc3nc(OC)cc(OC)n3)n2n1", "note": "[Compound B7-38]", "values": [{"measurement": "Polygonum convolvulus Control in %", "setting": "Polygonum convolvulus; 30 g of ai/ha", "value": 0, "unit": "%"}]}, {"molecule": "COc1nn(C(=O)[N-]S(=O)(=O)c2ccccc2OC(F)(F)F)c(=O)n1C.[Na+]", "note": "[Compound B8-1, flucarbazone-sodium]", "values": [{"measurement": "Polygonum convolvulus Control in %", "setting": "Polygonum convolvulus; 10 g of ai/ha", "value": 55, "unit": "%"}, {"measurement": "Veronica persica Control in %", "setting": "Veronica persica; 10 g of ai/ha", "value": 15, "unit": "%"}]}, {"molecule": "CCCOc1nn(C(=O)[N-]S(=O)(=O)c2ccccc2C(=O)OC)c(=O)n1C.[Na+]", "note": "[Compound B8-2, propoxycarbazone-sodium]", "values": [{"measurement": "Polygonum convolvulus Control in %", "setting": "Polygonum convolvulus; 10 g of ai/ha", "value": 38, "unit": "%"}]}, {"molecule": "COC(=O)c1csc(C)c1S(=O)(=O)NC(=O)n1nc(OC)n(C)c1=O", "note": "[Compound B8-3, thiencarbazone-methyl]", "values": [{"measurement": "Polygonum convolvulus Control in %", "setting": "Polygonum convolvulus; 1 g of ai/ha", "value": 50, "unit": "%"}]}, {"molecule": "COc1ncc(F)c2nc(S(=O)(=O)Nc3c(F)cccc3F)nn12", "note": "[Compound B9-3, florasulam]", "values": [{"measurement": "Polygonum convolvulus Control in %", "setting": "Polygonum convolvulus; [1]", "value": 73, "unit": "%"}]}, {"molecule": "COc1cc(OC)n2nc(NS(=O)(=O)c3c(C(F)(F)F)ccnc3OC)nc2n1", "note": "[Compound B9-7, pyroxsulam]", "values": [{"measurement": "Polygonum convolvulus Control in %", "setting": "Polygonum convolvulus; [1]", "value": 75, "unit": "%"}]}, {"molecule": "sodium salt of 2-iodo-N-[(4-methoxy-6-methyl-1,3,5-triazin-2-yl)carbamoyl]benzenesulfonamide [Compound A-2]", "values": [{"measurement": "Polygonum convolvulus Control in %", "setting": "Polygonum convolvulus; [1]", "value": "10% and 0%"}, {"measurement": "Polygonum spp. Control in %", "setting": "Polygonum spp.; 2.5 g of ai/ha", "value": 0, "unit": "%"}, {"measurement": "Veronica persica Control in %", "setting": "Veronica persica; 2.5 g of ai/ha, 0%=No control, 100%=Complete control", "value": "10% and 0%"}]}]}
